Experimental data published in patent US11629171B2, “Beta-hairpin peptidomimetics” (POLYPHOR AG, priority 2017, dated 2023).
Values after ≈ are worked out from the molar mass of the structure shown. Where two headings read alike, the source gives them in different places. Where a SMILES comes first, the peptide text is derived from it. Bridges are numbered along the chain shown (N, C = ends). Roman numbers before positions name the chains, in order. [ ]: non-standard residue; d: D form. The star is where a group is joined. Tyrosinol = OC[C@H](Cc1ccc(O)cc1)N*; Tle = CC(C)(C)[C@H](N)C(=O)O; Hiv = CC(C)[C@H](O)C(=O)O; dDab = NCC[C@@H](N)C(=O)O; hSer = N[C@@H](CCO)C(=O)O; Orn = NCCC[C@H](N)C(=O)O; Dab = NCC[C@H](N)C(=O)O; Nva = CCC[C@H](N)C(=O)O; Dap = NC[C@H](N)C(=O)O; NHCH2CH2OH = OCCN*

Key:
Type in all cases: cell-based
[1] = system: Acinetobacter baumannii 872842
Outline: (§1)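 Peptides are tested in serial two-fold dilutions against about 10^6 CFU/mL in MH-II broth containing 0.002% P-80 (v/v, final). Plates incubate 18-20 h at 35° C, and the MIC is the lowest peptide level (μg/mL) showing no visible growth.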

[2] = system: Acinetobacter baumannii DSM 30008
Outline: as §1

[3] = system: Enterobacter cloacae 848840
Outline: as §1

[4] = system: Escherichia coli 926415
Outline: as §1

[5] = system: Escherichia coli ATCC 25922
Outline: as §1

[6] = system: Klebsiella pneumoniae 968733
Outline: as §1

[7] = system: Klebsiella pneumoniae SSI #3010
Outline: as §1

[8] = system: Pseudomonas aeruginosa ATCC 27853
Outline: as §1

[9] = system: human red blood cells (hRBC); test: Hemolysis
Outline: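 Percent hemolysis relative to 2% Triton X-100 (100%) and PBS/10% water (0%), from blank-corrected OD540 of diluted supernatants. Peptides tested at 200 μg/mL against 20% (v/v) washed human erythrocytes, 1 h, 37° C, shaking at 300 rpm.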

| MIC [1]; 872842 [µg/mL] | MIC [3]; 848840 [µg/mL] | MIC [4]; 926415 [µg/mL] | MIC [6]; 968733 [µg/mL] | MIC ([2]; DSM 30008) [µg/mL] | MIC ([5]; ATCC 25922) [µg/mL] | MIC ([7]; SSI #3010) [µg/mL] | MIC ([8]; ATCC 27853) [µg/mL] | Structure (SMILES) | Hemolysis at 200 μg/mL ([9]; red cells of human, 1 h, 200) [%] | further results |
| --- | --- | --- | --- | --- | --- | --- | --- | --- | --- | --- |
| 2 (≈ 0.823 µM) | 1 (≈ 0.412 µM) | 2 (≈ 0.823 µM) | 8 (≈ 3.29 µM) | 0.25 (≈ 0.103 µM) | 0.25 (≈ 0.103 µM) | 0.25 (≈ 0.103 µM) | 0.25 (≈ 0.103 µM) | CC(C)C[C@@H]1NC(=O)[C@@H](CC(C)C)NC(=O)[C@H](CCN)NC(=O)[C@@H](NC(=O)[C@H](CCN)NC(=O)[C@@H](NC(=O)[C@H](CCN)NC(=O)CC[C@@H]2NC(=O)[C@@H](NC(=O)[C@H](CO)NC(=O)[C@@H](NC(=O)[C@@H](O)C(C)C)[C@@H](C)O)CSSC[C@@H](C(=O)N[C@H](C(=O)N[C@@H](C)C(=O)N[C@@H](Cc3ccc(O)cc3)C(=O)NCCO)C(C)(C)C)NC(=O)[C@H](Cc3c[nH]c4ccccc34)NC(=O)[C@H](CCO)NC(=O)[C@@H](CCN)NC2=O)[C@@H](C)O)CCNC(=O)[C@H]([C@@H](C)O)NC(=O)[C@H](CCN)NC(=O)[C@H](CCN)NC1=O [Ex. 236] (I: H-[Hiv]TSCE[dDab][hSer]WC[Tle]AY-NHCH2CH2OH / II: [Dab]T[Dab][Dab][Dab][dL]L[Dab][Dab]T; disulfide I:4-I:9; amide I:5-II:N; lactam II:4-II:C) | <1 | – |
| 0.0625 (≈ 0.0259 µM) | 0.0625 (≈ 0.0259 µM) | 0.03125 (≈ 0.013 µM) | 0.03125 (≈ 0.013 µM) | 0.03125 (≈ 0.013 µM) | 0.03125 (≈ 0.013 µM) | 0.03125 (≈ 0.013 µM) | 0.125 (≈ 0.0518 µM) | CCC[C@@H]1NC(=O)[C@@H](CC(C)C)NC(=O)[C@H](CCN)NC(=O)[C@@H](NC(=O)[C@H](CN)NC(=O)[C@@H](NC(=O)[C@H](CCN)NC(=O)CC[C@@H]2NC(=O)[C@H](CCN)NC(=O)[C@H](Cc3ccc(O)cc3)NC(=O)[C@@H](NC(=O)[C@@H](NC(C)=O)C(C)C)CSSC[C@@H](C(=O)N[C@H](C(N)=O)[C@@H](C)O)NC(=O)[C@H](C(C)(C)C)NC(=O)[C@H](CO)NC(=O)[C@H](Cc3c[nH]c4ccccc34)NC(=O)[C@H](CO)NC(=O)[C@@H](CCN)NC2=O)[C@@H](C)O)CCNC(=O)[C@H]([C@@H](C)O)NC(=O)[C@H](CCN)NC(=O)[C@H](CCN)NC1=O [Ex. 141] (I: Ac-VCY[Dab]E[dDab]SWS[Tle]CT-NH2 / II: [Dab]T[Dap][Dab][Dab][dL][Nva][Dab][Dab]T; disulfide I:2-I:11; amide I:5-II:N; lactam II:4-II:C) | 2 | – |

Second part, the compound before the results:

| Structure (SMILES) | MIC [1]; 872842 [µg/mL] | MIC [3]; 848840 [µg/mL] | MIC [4]; 926415 [µg/mL] | MIC [6]; 968733 [µg/mL] | MIC ([2]; DSM 30008) [µg/mL] | MIC ([5]; ATCC 25922) [µg/mL] | MIC ([7]; SSI #3010) [µg/mL] | MIC ([8]; ATCC 27853) [µg/mL] | Hemolysis at 200 μg/mL ([9]; red cells of human, 1 h, 200) [%] | further results |
| --- | --- | --- | --- | --- | --- | --- | --- | --- | --- | --- |
| CC(=O)N[C@H](C(=O)N[C@H]1CSSC[C@@H](C(=O)N[C@@H](CO)C(=O)N[C@@H](CC(N)=O)C(N)=O)NC(=O)[C@H](C(C)C)NC(=O)[C@H](CO)NC(=O)[C@H](Cc2c[nH]c3ccccc23)NC(=O)[C@H](CCN)NC(=O)[C@@H](CCN)NC(=O)[C@H](CCC(=O)N[C@@H](CCN)C(=O)N[C@H](C(=O)N[C@@H](CN)C(=O)N[C@H]2CCNC(=O)[C@H]([C@@H](C)O)NC(=O)[C@H](CCN)NC(=O)[C@H](CCN)NC(=O)[C@H](CC(C)C)NC(=O)[C@@H](CC(C)C)NC(=O)[C@H](CCN)NC2=O)[C@@H](C)O)NC(=O)[C@H](CO)NC(=O)[C@H](Cc2ccc(O)cc2)NC1=O)C(C)C [Ex. 373] (I: Ac-VCYSE[dDab][Dab]WSVCSN-NH2 / II: [Dab]T[Dap][Dab][Dab][dL]L[Dab][Dab]T; disulfide I:2-I:11; amide I:5-II:N; lactam II:4-II:C) | 0.0625 (≈ 0.0249 µM) | 0.25 (≈ 0.0995 µM) | 0.125 (≈ 0.0497 µM) | 0.125 (≈ 0.0497 µM) | – | – | – | – | <1 | Acinetobacter baumannii DSM 30008 MIC ([2]; DSM 30008): 0.03125 µg/mL; Escherichia coli ATCC 25922 MIC ([5]; ATCC 25922): 0.0625 µg/mL; Klebsiella pneumoniae SSI #3010 MIC ([7]; SSI #3010): 0.0625 µg/mL; Pseudomonas aeruginosa ATCC 27853 MIC ([8]; ATCC 27853): 0.0625 µg/mL |
| CC(=O)N[C@@H](CCN)C(=O)N[C@H](C(=O)N[C@H](C(=O)N[C@@H](Cc1ccc(O)cc1)C(=O)N[C@H]1CSSC[C@@H](C(=O)N[C@H](C(=O)N[C@@H](C)C(=O)N[C@@H](CO)C(N)=O)C(C)(C)C)NC(=O)[C@H](Cc2c[nH]c3ccccc23)NC(=O)[C@H](CO)NC(=O)[C@@H](CCN)NC(=O)[C@H](CCC(=O)N[C@@H](CCN)C(=O)N[C@H](C(=O)N[C@@H](CN)C(=O)N[C@H]2CCNC(=O)[C@H]([C@@H](C)O)NC(=O)[C@H](CCN)NC(=O)[C@H](CCN)NC(=O)[C@H](CC(C)C)NC(=O)[C@@H](CC(C)C)NC(=O)[C@H](CCN)NC2=O)[C@@H](C)O)NC1=O)[C@@H](C)O)C(C)C [Ex. 237] (I: Ac-[Dab]VTYCE[dDab]SWC[Tle]AS-NH2 / II: [Dab]T[Dap][Dab][Dab][dL]L[Dab][Dab]T; disulfide I:5-I:10; amide I:6-II:N; lactam II:4-II:C) | 0.125 (≈ 0.05 µM) | 0.125 (≈ 0.05 µM) | 0.25 (≈ 0.1 µM) | 0.5 (≈ 0.2 µM) | 0.03125 (≈ 0.0125 µM) | 0.0625 (≈ 0.025 µM) | 0.0625 (≈ 0.025 µM) | 0.125 (≈ 0.05 µM) | <1 | – |
| CC(=O)N[C@H](C(=O)N[C@H]1CSSC[C@@H](C(=O)N[C@H](CO)Cc2ccc(O)cc2)NC(=O)[C@H](C(C)(C)C)NC(=O)[C@H](CO)NC(=O)[C@H](Cc2c[nH]c3ccccc23)NC(=O)[C@H](CCO)NC(=O)[C@@H](CCN)NC(=O)[C@H](CCC(=O)N[C@@H](CCN)C(=O)N[C@H](C(=O)N[C@@H](CCN)C(=O)N[C@H]2CCNC(=O)[C@H]([C@@H](C)O)NC(=O)[C@H](CCN)NC(=O)[C@H](CCN)NC(=O)[C@H](CC(C)C)NC(=O)[C@@H](CC(C)C)NC(=O)[C@H](CCN)NC2=O)[C@@H](C)O)NC(=O)[C@H](CCN)NC(=O)[C@H](CO)NC1=O)C(C)C [Ex. 94] (I: Ac-VCS[Dab]E[dDab][hSer]WS[Tle]C-Tyrosinol / II: [Dab]T[Dab][Dab][Dab][dL]L[Dab][Dab]T; disulfide I:2-I:11; amide I:5-II:N; lactam II:4-II:C) | – | – | – | – | – | – | – | – | – | MIC ([1]; Acinetobacter baumannii 872842 clinical isolate, Mueller-Hinton II broth): 0.25 µg/mL (≈ 0.103 µM); MIC ([2]; Acinetobacter baumannii DSM 30008, Mueller-Hinton II broth): 0.125 µg/mL (≈ 0.0515 µM); MIC ([3]; Enterobacter cloacae 848840 clinical isolate, Mueller-Hinton II broth): 1 µg/mL (≈ 0.412 µM); MIC ([4]; Escherichia coli 926415 clinical isolate, Mueller-Hinton II broth): 0.25 µg/mL (≈ 0.103 µM); MIC ([5]; Escherichia coli ATCC 25922, Mueller-Hinton II broth): 0.0625 µg/mL (≈ 0.0257 µM); MIC ([6]; Klebsiella pneumoniae 968733 clinical isolate, Mueller-Hinton II broth): 0.25 µg/mL (≈ 0.103 µM); MIC ([7]; Klebsiella pneumoniae SSI #3010, Mueller-Hinton II broth): 0.0625 µg/mL (≈ 0.0257 µM); MIC ([8]; Pseudomonas aeruginosa ATCC 27853, Mueller-Hinton II broth): 0.25 µg/mL (≈ 0.103 µM); Hemolysis at 200 μg/mL ([9]; 200 μg/mL, human red blood cells): <1% |
| CC(=O)N[C@H](C(=O)N[C@H]1CCCNC(=O)[C@@H]([C@H](C)O)NC(=O)[C@H](C(C)(C)C)NC(=O)[C@H](CO)NC(=O)[C@H](Cc2c[nH]c3ccccc23)NC(=O)[C@H](CCO)NC(=O)[C@@H](CCN)NC(=O)[C@H](CCC(=O)N[C@@H](CCN)C(=O)N[C@H](C(=O)N[C@@H](CCN)C(=O)N[C@H]2CCNC(=O)[C@H]([C@@H](C)O)NC(=O)[C@H](CCN)NC(=O)[C@H](CCN)NC(=O)[C@H](CC(C)C)NC(=O)[C@@H](CC(C)C)NC(=O)[C@H](CCN)NC2=O)[C@@H](C)O)NC(=O)[C@H](CCN)NC(=O)[C@H](Cc2ccc(O)cc2)NC1=O)C(C)C [Ex. 15] (I: Ac-V[Orn]Y[Dab]E[dDab][hSer]WS[Tle][dT] / II: [Dab]T[Dab][Dab][Dab][dL]L[Dab][Dab]T; lactam I:2-I:C, II:4-II:C; amide I:5-II:N) | 0.25 (≈ 0.106 µM) | 0.125 (≈ 0.0532 µM) | 0.25 (≈ 0.106 µM) | 0.25 (≈ 0.106 µM) | 0.125 (≈ 0.0532 µM) | 0.0625 (≈ 0.0266 µM) | 0.125 (≈ 0.0532 µM) | 0.25 (≈ 0.106 µM) | <1 | – |
| CC(=O)N[C@H](C(=O)N[C@H]1CCCNC(=O)[C@@H](CCC(=O)O)NC(=O)[C@H](C(C)(C)C)NC(=O)[C@H](CO)NC(=O)[C@H](Cc2c[nH]c3ccccc23)NC(=O)[C@H](CCO)NC(=O)[C@@H](CCN)NC(=O)[C@H](CCC(=O)N[C@@H](CCN)C(=O)N[C@H](C(=O)N[C@@H](CN)C(=O)N[C@H]2CCNC(=O)[C@H]([C@@H](C)O)NC(=O)[C@H](CCN)NC(=O)[C@H](CCN)NC(=O)[C@H](CC(C)C)NC(=O)[C@@H](CC(C)C)NC(=O)[C@H](CCN)NC2=O)[C@@H](C)O)NC(=O)[C@H](CO)NC(=O)[C@H](Cc2ccc(O)cc2)NC1=O)C(C)C [Ex. 21] (I: Ac-V[Orn]YSE[dDab][hSer]WS[Tle][dE] / II: [Dab]T[Dap][Dab][Dab][dL]L[Dab][Dab]T; lactam I:2-I:C, II:4-II:C; amide I:5-II:N) | 2 (≈ 0.852 µM) | 0.5 (≈ 0.213 µM) | 8 (≈ 3.41 µM) | 8 (≈ 3.41 µM) | 0.5 (≈ 0.213 µM) | 0.25 (≈ 0.106 µM) | 0.5 (≈ 0.213 µM) | 0.5 (≈ 0.213 µM) | <1 | – |
